Results published in EP2385948B1, “FUSED THIAZOLO AND OXAZOLO PYRIMIDINONES” (Torrent Pharmaceuticals Limited, priority 2009, dated 2011).

How the values were obtained:
adrenomedullin mRNA = experiment: In vitro induction of adrenomedullin mRNA (real-time PCR, normalized to 18S rRNA); format: cell-based; settings: Homo sapiens, Hep3B, 6 h, Hep3B cell line, relative to vehicle control
Procedure: Hep3B cell line (ATCC HB8064) was employed. […] At the end of 6 hours, cells were lysed and total RNA was isolated. Expression of adrenomedullin mRNA along-with expression of 18S rRNA was monitored by real-time PCR. Adrenomedullin mRNA expression was normalized relative to the expression of 18S rRNA. The results were expressed as fold induction of adrenomedullin mRNA relative to vehicle treated control.

[1] = system: 5/6 nephrectomized (5/6 NX) rats; experiment: Anemia associated with chronic kidney disease, 5/6 nephrectomized rat model; format: in vivo; settings: for fold increase in reticulocyte production index: compared to control group
Procedure: The efficacy of the test compound to correct anemia associated with CKD was studied in an animal model of anemia - 5/6 nephrectomized (5/6 NX) rats^15,16,17. Animals were randomized based upon anemia and kidney dysfunction parameters and divided into two groups. One group received compound-10 (20mg/kg; b.i.d. i.p) for seven days while the control received respective vehicle. Blood sampling was done on day 3 and 7 post initiation of drug administration to check early markers of anemia correction.

[2] = system: renal ischemia and reperfusion induced acute kidney injury model in rats; experiment: Renal ischemia and reperfusion induced acute kidney injury model; format: in vivo; settings: 24hrs post initiation of ischemia, from control group
Procedure: The efficacy of test compound to improve renal function was evaluated in a renal ischemia and reperfusion induced acute kidney injury model in rats. The beneficial effect of the compound was evaluated using two different treatment protocols. In one protocol treatment with test compound was given before onset of ischemia (pre-treatment) and the other protocol involed treatment with test compound initiated after the onset of ischemia (post-treatment).
Pre-ischemia intervention protocol: Rats were randomised into two groups, compound treated and vehicle control. Before initiation of bilateral renal ischemia, the animals in compound treatment group received multiple doses of compound no. 10 (i.e. pre treated) and control group received vehicle by i.p route.
Post-ischemia intervention protocol: Rats were randomised into two groups, compound treated and vehicle control. After intiation of bilateral renal ischemia, the animals in compound treatment group received multiple doses of compound no. 10 (i.e. post treated) and control group received vehicle in similar fashion by i.p route.
Induction of Renal ischemia and reperfusion in rats: All animals were anesthetized with pentobarbital sodium (50 mg/kg body wt). Homeothermic blanket was used to maintain a constant body temperature of 37°C during surgery and ischemia. A midline incision was made at the ventral side to access the kidneys and both renal pedicle were isolated and occluded for 35 mins using microclips, which was verified by the change of the renal color. After an ischemic period of 35 min, the microclips were removed and reperfusion initiated. The abdomen was closed and skin & muscles sutured and animal allowed to recover. Blood sample of 300 µl was taken via sublingual vein puncture at various predetermined time points.
In both protocols tested i.e pre-ischemia intervention and post-ischemia intervention, renal function improvement was assessed by measuring serum creatinine and BUN (blood urea nitrogen) at various time points post ischemia. Results are expressed below as % reduction from their control group at 24hrs post initiation of ischemia.

erythropoietin = experiment: In vitro erythropoietin induction (ELISA of cell culture supernatant); settings: Homo sapiens, Hep3B, 16 h, read-out: EPO fold induction, Hep3B cell line, 200 uM, 16 hours, relative to vehicle control
Procedure: Hep3B cell line (ATCC HB8064) was employed. Induction of erythropoietin was carried out for the indicated dose of compounds for 16 hours duration. At the end of 16 hours, cell culture medium was collected and centrifuged to remove any debris. Supernatant obtained was analyzed for erythropoietin by ELISA (R&D systems, USA). The results were expressed as fold induction as compared to vehicle control.

VEGF = experiment: In vitro induction of VEGF (ELISA of cell culture supernatant); format: cell-based; settings: Homo sapiens, Hep3B cell line, 16 hours, relative to vehicle control
Procedure: Hep3B cell line (ATCC HB8064) was employed. […] Supernatant obtained was analyzed for VEGF by ELISA (R&D systems, USA). […]

[3] = day 7 of treatment, 5/6 NX rats, 20mg/kg b.i.d. i.p, compared to control
[4] = Post-ischemia intervention, i.p. 0.3mg/kg as 1st dose & 0.1mg/kg as subsequent dose
[5] = Pre-ischemia intervention, i.p. 10 mg/kg multiple dose

## O=C(O)CNC(=O)c1c(O)nc2sc3c(n2c1=O)CCCCC3 [Compound 10, [(2-Hydroxy-4-oxo-6,7,8,9-tetrahydro-4H,5H-10-thia-1,4a-diaza-benzo[a]azulene-3-carbonyl)-amino] -acetic acid]
Adrenomedullin mRNA
  fold induction at 200 µM: > 8
[1]; 5/6 NX rats, 20mg/kg b.i.d. i.p for seven days, vehicle control undetectable (<45 pg/ml)
  circulating EPO levels: 115 to 3900 pg/mL
[1]; day 3, 5/6 NX rats, 20mg/kg b.i.d. i.p
  fold increase in reticulocyte production index: 3 fold
[1]; day 7, 5/6 NX rats, 20mg/kg b.i.d. i.p
  fold increase in reticulocyte production index: 5.6 fold
[1]; [3]
  increase in erythrocyte count: 24%
  increase in hematocrit percent: 25%
  increase in hemoglobin content: 30%
[2]; [4]
  % reduction BUN: 17.0%
  % reduction Ser.Creatinine: 31.0%
[2]; [5]
  % reduction BUN: 18.0%
  % reduction Ser.Creatinine: 33.0%
erythropoietin
  fold induction at 200 µM: > 16
VEGF
  fold induction at 200 µM: 2 to 4
